Our source for the Ki values is patent US20110275630A1, “ISO[…] INHIBITORS” (ABBOTT LABORATORIES, priority 2003, published 2011).

Molecules are shown by their SMILES.

This experiment deals with T1, ROCK 2 (Homo sapiens, UniProt O75116).
T1 construct: ROCK1 (1.5 nM; Invitrogen) or ROCK2 (0.2 nM; Upstate) catalytic domains; purchased Upstate
T1 sequence (O75116 92-354 limits assumed, species assumed): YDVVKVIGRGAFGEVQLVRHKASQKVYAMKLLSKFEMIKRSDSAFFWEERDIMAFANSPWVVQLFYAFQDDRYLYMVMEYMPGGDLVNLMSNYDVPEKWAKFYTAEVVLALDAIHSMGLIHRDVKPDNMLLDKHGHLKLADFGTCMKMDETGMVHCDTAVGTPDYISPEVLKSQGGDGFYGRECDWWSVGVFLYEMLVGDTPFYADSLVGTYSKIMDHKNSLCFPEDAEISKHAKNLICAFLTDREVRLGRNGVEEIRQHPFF
Put plainly: ROCK kinase activity assays ([33P]-ATP FlashPlate assay / HTRF assay). The class given is biochemical. The source says: [33P]-ATP assay: ROCK activity is initially determined using a radioactive FlashPlate-based assay.
Compound `O=C(Nc1ccc(-c2cccc3c2CNC3=O)cc1)c1cc2cc(F)ccc2[nH]1` [Example 131, 5-fluoro-N-[4-(1-oxo-2,3-dihydro-1H-isoindol-4-yl)phenyl]-1H-indole-2-carboxamide] showed a Ki of 32.6 nM.

`O=C(Nc1ccc(-c2cccc3c2CNC3=O)cc1)c1cccc(S(=O)(=O)N2CCOCC2)c1` [Example 135, 3-(morpholin-4-ylsulfonyl)-N-[4-(1-oxo-2,3-dihydro-1H-isoindol-4-yl)phenyl]benzamide]: the Ki turned out to be 8.75 nM.

Regarding `NC1CCN(S(=O)(=O)c2cccc(C(=O)Nc3ccc(-c4cccc5c4CNC5=O)cc3)c2)CC1` [Example 137, 3-[(4-aminopiperidin-1-yl)sulfonyl]-N-[4-(1-oxo-2,3-dihydro-1H-isoindol-4-yl)phenyl]benzamide], the Ki was found to be 12.8 nM.

`O=C(Nc1ccc(-c2cccc3c2CNC3=O)cc1)c1ccc2c(c1)OCCO2` [Example 134, N-[4-(1-oxo-2,3-dihydro-1H-isoindol-4-yl)phenyl]-2,3-dihydro-1,4-benzodioxine-6-carboxamide] yielded a Ki of 331 nM.

With `O=C(Nc1ccc(-c2cccc3c2CNC3=O)cc1)c1cc2ccccc2[nH]1` [Example 140, N-[4-(1-oxo-2,3-dihydro-1H-isoindol-4-yl)phenyl]-1H-indole-2-carboxamide], the Ki amounted to 27.4 nM.

As for `O=C(Nc1ccc(-c2cccc3c2CNC3=O)cc1)c1cc2ccccc2o1` [Example 132, N-[4-(1-oxo-2,3-dihydro-1H-isoindol-4-yl)phenyl]-1-benzofuran-2-carboxamide], affinity was put at a Ki of 66.1 nM.

Turning to `O=C1NCc2c1cccc2-c1ccc(Nc2nc3ccc(Cl)cc3o2)cc1` [Example 139, 4-{4-[(6-chloro-1,3-benzoxazol-2-yl)amino]phenyl}-2,3-dihydro-1H-isoindol-1-one], affinity was put at a Ki of 153 nM.

As to `O=C(Nc1ccc(-c2cccc3c2CNC3=O)cc1)c1ccc(N2CCOCC2)nc1` [Example 136, 6-(morpholin-4-yl)-N-[4-(1-oxo-2,3-dihydro-1H-isoindol-4-yl)phenyl]pyridine-3-carboxamide], affinity was put at a Ki of 201 nM.
